Data: patent publication US11559545B2, “Inhibition of UCHL1 in high-grade serous ovarian cancer” (The Trustees of Indiana University, priority 2019, dated 2023)

Tests used:
UCHL1 [1] = assay: Relative UCHL1 expression (qPCR) after DNA methylase inhibitor treatment in ovarian cancer cells; assay type: cell-based; conditions: 200 μM, day 2, HGSOC cell lines with mutant p53, FIG. 7I
Procedure: FIG. 7A depicts relative UCHL1 expression (qPCR) after treatment with DNA methylase inhibitor, 5AzaDC (200 μM, day3) in ovarian cancer cells. The following cell cultures were included in the analysis: HeyA8 (WT p53), SKOV3 (p53 null), OVCAR5 (p53 null), Kuramochi (mutant p53), and OVCAR4 (mutant p53).
FIG. 7H depicts relative UCHL1 expression (qPCR) after treatment with DNA methylase inhibitor, 5AzaDC (200 μM, day 2) in ovarian cancer cells with wild-type p53 (HeyA8 and A2780), ovarian cancer cells with p53-null mutations (OVCAR5 and SKOV3) and normal fallopian tube cells with wild-type p53 (FTE282).
FIG. 7I illustrates that no change in UCHL1 levels were detected with treatment with DNA methylase inhibitor 5AzaDC (200 μM, day 2) in HGSOC cell lines with mutant p53.

[2] = tested on: HGSOC primary and metastatic tumors; assay: Transgenic TKO mouse model of HGSOC: growth and progression of primary and metastatic tumors after UCHL1 inhibition; assay type: in vivo
From the text: Triple mutant (TKO) mice are Pten and Dicer knockout and overexpress mutant p53 R172H (corresponding to human R175H mutant) (Pten−/− Dicer−/− and p53-R172H). These mice spontaneously developed primary tumors in the fallopian tube at age 4 months, which metastasize to other organs by 5-6 months. This model recapitulates metastatic tumor growth as in ovarian cancer patients. […] The tumors are circled using a dotted line and/or indicated with arrows.
FIGS. 11B and 11C illustrate the reduction in primary HGSOC tumor size with LDN treatment in mice aged 4-6 months.

PSMA7 = PSMA7 RNA and protein levels in treated TKO mice; assay type: in vivo, mouse; conditions: treated TKO mice vs untreated TKO control, FIG. 12E
Proteasome = Proteasome activity in treated TKO mice; assay type: in vivo, mouse; conditions: treated TKO mice vs TKO CTL mice, FIG. 12E
UCHL1 [3] = conditions: cited from earlier work

Row | SMILES | UCHL1 levels (UCHL1 [1]) | primary tumor ([2]; TKO mice (Pten-/- Dicer-/- p53-R172H) vs TKO control, FIG. 11A) | metastatic tumors in the omentum, diaphragm, mesentery, and peritoneal wall ([2]; TKO mice vs TKO control, FIG. 11A) | primary HGSOC tumor size ([2]; mice aged 4-6 months, FIGS. 11B and 11C) | PSMA7 RNA levels (PSMA7) | PSMA7 protein levels (PSMA7) | Proteasome activity (Proteasome) | mode of UCHL1 inhibition (UCHL1 [3])
1 | Nc1ncn([C@H]2C[C@H](O)[C@@H](CO)O2)c(=O)n1 [5AzaDC] | no change | – | – | – | – | – | – | –
2 | CC(=O)O/N=C1\C(=O)N(Cc2cc(Cl)ccc2Cl)c2ccc(Cl)cc21 [LDN-57444] | – | visible reduction | absence | reduction | reduced | reduced | significantly reduced | competitive, reversible, active site-directed inhibitor
